Tests used:
[1] = tested on: MTHFR; test: Western blotting of hepatic MTHFR expression; format: in vivo, mouse; conditions: HO mice, 30 g/l in drinking water ad libitum, one week
Protocol: (§1) To investigate the effects of these treatments upon the hepatic regulatory changes in enzyme expression induced by HCU, the human transgenic HO mouse model of HCU was used. In brief, experimental groups consisting of 8 HO mice on a C57BL/6J background and 8 C57BL/6J WT littermate control mice bred in house were used. Mice in both groups were male and aged between 3 and 4 months. Except where otherwise stated, all mice were maintained on standard chow. All diets were administered using a paired-feeding design to ensure isocaloric intake between all experimental groups and body weights were measured once per week. There was no significant difference in body weight between mice in any of the experimental groups. Betaine and taurine were in this example, both administered by dissolving these compounds in drinking water at 30 g/l (2% or 3% w/v) and were supplied ad libitum for one week. Treatment water was replenished twice per week.
(§2) Western blotting analysis of SAHH, MTHFR and SHMT2 expression was performed in liver samples from HO mice in the presence and absence of betaine or taurine treatment.

[2] = tested on: HO HCU mice; conditions: earlier study, cited from earlier work
[3] = tested on: SAHH; test: Western blotting of hepatic SAHH expression; format: in vivo, mouse; conditions: HO mice, 30 g/l in drinking water ad libitum, one week
Protocol: as §1, §2

[4] = tested on: HO HCU mice; test: Plasma metabolite levels (tHcy, methionine cycle amino acids, SAM, SAH) in HO HCU mice; format: in vivo, mouse; conditions: long-term betaine treatment, no methionine-restriction
[5] = tested on: Cbs null mouse; conditions: betaine treatment; cited from earlier work
[6] = tested on: GNMT; test: Western blotting of hepatic GNMT expression; format: in vivo, mouse; conditions: HO HCU mice, 30 g/l in drinking water ad libitum, one week
Protocol: as §1
These observations are the first to report betaine and taurine acting to regulate expression of these processes. Therefore, this observation supports that taurine alone or in combination with betaine and other treatments for genetic homocystinuria are viable options for avoiding dietary restraints and treating these conditions.

[7] = tested on: DHFR; test: Western blotting of hepatic DHFR protein levels; format: in vivo, mouse; conditions: HO mice, betaine treated; not restored to control levels
Protocol: In other exemplary experiments, levels of DHFR were assessed using the HO mouse model in untreated and betaine treated mice. […] In addition, level of intensity of DHFR for wild type (WT), treated (HO+betaine) and untreated mice (HO) using the HCU mouse model was examined (FIG. 4B). It was noted that the level of DHFR in betaine treated mice was not restored to control levels and only about a 5-10% improvement was observed (FIG. 4B). (See FIGS. 4A-4B). As noted herein, Western blotting analysis of hepatic DHFR protein levels in WT and HO HCU mice. N=9 per group.

[8] = tested on: ApoA-1; test: ApoA-1 expression in HO model; format: in vivo, mouse; conditions: one-week treatment protocol
Protocol: (§3) In another exemplary method, the transsulfuration pathway and methionine-folate cycle pathways, as show in the sematic illustrated in FIG. 18A, were assessed. In brief, three experimental groups (n=8 for each group) of male mice consisting of either untreated WT controls or HO HCU mice in the presence or absence of betaine treatment. Betaine was administered by dissolving the compound in drinking water at 30 g/l and was supplied ad libitum to the mice for one week. Treatment water was replenished twice per week.

[9] = mouse, in vivo
Protocol: as §3
as §1, with “Betaine and taurine were in this example, both administered by dissolving these compounds in drinking water at 30 g/l (2% or 3% w/v) and were supplied ad libitum for one week. Treatment water was replenished twice per week.” left out

[10] = tested on: HO HCU mice; conditions: earlier study, cited from earlier work; remark: listed apart in the source
[11] = tested on: SHMT2; test: Western blotting of hepatic SHMT2 expression; format: in vivo, mouse; conditions: HO mice, 30 g/l in drinking water ad libitum, one week
Protocol: as §1, §2

[12] = tested on: mouse model of MTR deficient homocystinuria; test: tHcy in mouse model of MTR deficient homocystinuria; format: in vivo; conditions: betaine supplementation
From the text: In the following exemplary experiments, it was observed that betaine supplementation was limited as observed in a mouse model of MTR deficient homocystinuria. As noted in FIG. 1, homocystinuria can occur due to defects in the Hcy remethylation enzymes MTR or MTHFR. It was observed that supplementation of betaine in certain experiments with a mouse model of MTR deficient homocystinuria lead to reduction of tHcy of approximately 25% having little effect on the condition. This modest decrease in betaine mediated treatment of MTR deficient homocystinuria has also been observed in human patients with this form of homocystinuria.

[13] = HCU mice, longer period of betaine treatment
[14] = mouse model of HCU, betaine treatment

Q: For C[N+](C)(C)CC(=O)O [betaine, N,N,N-trimethylglycine], which “HCU-mediated induction of hepatic MTHFR expression” value [1] is on record?
A: Its value is “completely reversed”.

Q: And the “hypercoagulative phenotype after a longer period of treatment” value [2, 13]?
A: Its value is “return to the hypercoagulative phenotype”.

Q: And the hypercoagulative phenotype [2, 14]?
A: The hypercoagulative phenotype was “significantly ameliorated the hypercoagulative phenotype”.

Q: What about the “HCU-mediated induction of hepatic SAHH expression” value [3] of the same compound?
A: Its value is “completely reversed”.

Q: What about the “ability of betaine treatment to lower homocysteine” value [4] of the same compound?
A: Its value is “diminished significantly over time”.

Q: What about the “Hcy in Cbs (−/−) mice” value [5] of the same compound?
A: The value was “without significantly lowering Hcy”.

Q: What about the “fertility of female Cbs (−/−) mice” value [5] of the same compound?
A: The value was “restored fertility”.

Q: And the “severe liver injury, steatosis, and fibrosis in Cbs (−/−) mice” value [5]?
A: The value was “not significantly improved”.

Q: And the “survival of Cbs (−/−) mice” value [5]?
A: Its value is “improved survival”.

Q: What about the “hepatic GNMT expression” value [6] of the same compound?
A: The value was “induced expression”.

Q: What about the “improvement of hepatic DHFR level” value [7] of the same compound?
A: Its value is 5-10%.

Q: And the ApoA-1 expression [8]?
A: Its ApoA-1 expression is “increase ApoA-1 expression”.

Q: What about the tolerability of doses [9] of the same compound?
A: Its tolerability of doses is “well tolerated”.

Q: And the “total homocysteine levels after a longer period of treatment” value [10, 13]?
A: The value was “greater than 100 μM”.

Q: What about the plasma homocysteine [10, 14] of the same compound?
A: Its plasma homocysteine is “below 100 μM”.

Q: And the “HCU-induced repression of hepatic SHMT2” value [11]?
A: The value was “completely reversed”.

Q: What about the “reduction of tHcy” value [12] of the same compound?
A: Its value is “approximately 25%”.
